Test results as given in the supplement of paper PMC10307832.

Assays:
Assay in all cases: relative viability (nuclei count vs DMSO), 5 days (fraction); higher = more cells survive
Dabrafenib + OSI-027 = compound: CC(C)(C)c1nc(-c2cccc(NS(=O)(=O)c3c(F)cccc3F)c2F)c(-c2ccnc(N)n2)s1 [Dabrafenib] + COc1cccc2cc(-c3nc([C@H]4CC[C@H](C(=O)O)CC4)n4ncnc(N)c34)[nH]c12 [OSI-027] (partner 0.5 µM)
Outline: (§1)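 Relative viability divides the nuclei count in treated wells by that in vehicle wells. Lung cancer cell lines were seeded in 1536-well plates, dosed by pin tool the next day, and fixed and stained after 5 days in one step with final 0.05% Triton X-100, 1% formaldehyde and 1 ug/ml Hoechst. Dosing was a single drug or a fixed anchor-drug dose plus five library-drug doses (not always all listed) in √10 steps, and values are medians of duplicate plates imaged at 4×.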

Dabrafenib + AZD7762 = compound: CC(C)(C)c1nc(-c2cccc(NS(=O)(=O)c3c(F)cccc3F)c2F)c(-c2ccnc(N)n2)s1 [Dabrafenib] + NC(=O)Nc1cc(-c2cccc(F)c2)sc1C(=O)N[C@H]1CCCNC1 [AZD7762] (partner 0.2 µM)
Outline: as §1

VX-702 + Trametinib = compound: NC(=O)c1ccc(N(C(N)=O)c2c(F)cccc2F)nc1-c1ccc(F)cc1F [VX-702] + CC(=O)Nc1cccc(-n2c(=O)n(C3CC3)c(=O)c3c(Nc4ccc(I)cc4F)n(C)c(=O)c(C)c32)c1 [Trametinib] (partner 0.02 µM)
Outline: as §1

VX-702 + AZD7762 = compound: NC(=O)c1ccc(N(C(N)=O)c2c(F)cccc2F)nc1-c1ccc(F)cc1F [VX-702] + NC(=O)Nc1cc(-c2cccc(F)c2)sc1C(=O)N[C@H]1CCCNC1 [AZD7762] (partner 0.2 µM)
Outline: as §1

VX-702 + Vorinostat = compound: NC(=O)c1ccc(N(C(N)=O)c2c(F)cccc2F)nc1-c1ccc(F)cc1F [VX-702] + O=C(CCCCCCC(=O)Nc1ccccc1)NO [Vorinostat] (partner 1 µM)
Outline: as §1

SW 900
relative viability (Dabrafenib + OSI-027; first compound 0.009487 µM): 0.619 | relative viability (Dabrafenib + OSI-027; first compound 0.03 µM): 0.466 | relative viability (Dabrafenib + OSI-027; first compound 0.3 µM): 0.679 | relative viability (Dabrafenib + AZD7762; first compound 0.009487 µM): 0.578 | relative viability (Dabrafenib + AZD7762; first compound 0.09487 µM): 0.845 | relative viability (Dabrafenib + AZD7762; first compound 0.3 µM): 0.875 | relative viability (VX-702 + Trametinib; first compound 0.02 µM): 0.775 | relative viability (VX-702 + Trametinib; first compound 0.2 µM): 0.871 | relative viability (VX-702 + Trametinib; first compound 0.6325 µM): 0.856 | relative viability (VX-702 + Trametinib; first compound 2 µM): 0.795 | relative viability (VX-702 + AZD7762; first compound 0.02 µM): 0.611 | relative viability (VX-702 + AZD7762; first compound 0.2 µM): 0.502 | relative viability (VX-702 + AZD7762; first compound 0.6325 µM): 0.492 | relative viability (VX-702 + AZD7762; first compound 2 µM): 0.572 | relative viability (VX-702 + Vorinostat; first compound 0.02 µM): 0.492 | relative viability (VX-702 + Vorinostat; first compound 0.2 µM): 0.444 | relative viability (VX-702 + Vorinostat; first compound 0.6325 µM): 0.558 | relative viability (VX-702 + Vorinostat; first compound 2 µM): 0.516
